Values after ≈ are worked out from the molar mass of the structure shown.
Experiments:
Staphylococcus aureus [1] = assay: Antibacterial activity against Staphylococcus aureus ATCC 29213 assessed as reduction in bacterial growth; assay type: functional
[2] = target: Dual specificity tyrosine-phosphorylation-regulated kinase 1A (Homo sapiens, UniProt Q13627); assay: Inhibition of DYRK1A (unknown origin)
Escherichia coli [3] = assay: Antibacterial activity against Escherichia coli assessed as bacterial growth inhibition; assay type: functional
Candida albicans [4] = assay: […] activity against Candida albicans assessed as zone of inhibition at 20 mg/ml; assay type: functional; details: read-out: IZ
Escherichia coli [5] = assay: Antibacterial activity against Escherichia coli assessed as bacterial growth inhibition by broth dilution method; assay type: functional
H69AR = assay: Cytotoxicity against human NCI-H69AR cells assessed as reduction in cell viability by SRB assay; assay type: functional, cell-based
HuCC-A1 = assay: Antiproliferative activity against human HuCC-A1 cells assessed as reduction in cell proliferation; assay type: functional, cell-based
[6] = system: Staphylococcus epidermidis; assay: Antibacterial activity against Staphylococcus epidermidis assessed as reduction in bacterial growth; assay type: functional
Salmonella enterica = assay: Antibacterial activity against Salmonella enterica assessed as bacterial growth inhibition by broth dilution method; assay type: functional
[7] = Inhibition of wild type HIV-1 protease; parameters: species or system Human immunodeficiency virus
HCT-15 = assay: Anticancer activity against human HCT-15 cells assessed as cell growth inhibition; assay type: functional, cell-based
MCF7 [8] = assay: Inhibition of CKII in human MCF7 cells at 50 uM assessed as inhibition; assay type: cell-based
HCT-116 [9] = assay: Inhibition of CKII in human HCT-116 cells at 50 uM assessed as inhibition; assay type: cell-based
[10] = Inhibition of HIV-1 integrase; parameters: species or system Human immunodeficiency virus 1
Candida albicans [11] = assay: Antifungal activity against Candida albicans assessed as reduction in fungal growth; assay type: functional
[12] = Cytotoxicity against human MRC5 cells assessed as reduction in cell viability measured after 72 hrs by MTT assay; assay type: toxicity, cell-based
HCT-116 [13] = assay: Cytotoxicity against human HCT-116 cells assessed as reversal of multi drug resistance at 1 uM; assay type: functional, cell-based
L1210 [14] = assay: Cytotoxicity against […] cells assessed as reversal of multi drug resistance at 1 uM; assay type: functional, cell-based; details: Mus musculus
L1210 [15] = assay: Cytotoxicity against mouse L1210 cells assessed as reduction in cell viability; assay type: functional, cell-based
HCT-116/VM46 [16] = assay: cells; details: Homo sapiens
MES-SA = assay: Cytotoxicity against human MES-SA cells assessed as reduction in cell viability incubated for 72 hrs by MTT assay; assay type: functional, cell-based
[17] = Cytotoxicity against human HCC-S102 cells assessed as reduction in cell viability; assay type: functional, cell-based
Botrytis cinerea [18] = assay: Antifungal activity against Botrytis cinerea; assay type: functional, organism-based
Colletotrichum camelliae = assay: Antifungal activity against Colletotrichum camelliae; assay type: functional, organism-based
Botrytis cinerea [19] = assay: Antifungal activity against Botrytis cinerea assessed as inhibition of fungal growth incubated for 24 hrs by standard broth dilution assay; assay type: functional, organism-based
Staphylococcus aureus [20] = assay: Antibacterial activity against Staphylococcus aureus assessed as zone of inhibition; assay type: functional
Bacillus subtilis = assay: Antibacterial activity against Bacillus subtilis assessed as zone of inhibition; assay type: functional
Bacillus cereus = assay: Antibacterial activity against Bacillus cereus assessed as zone of inhibition; assay type: functional
Pseudomonas aeruginosa = assay: Antibacterial activity against Pseudomonas aeruginosa assessed as zone of inhibition; assay type: functional
Escherichia coli [21] = assay: Antibacterial activity against Escherichia coli assessed as zone of inhibition; assay type: functional
Klebsiella aerogenes = assay: Antibacterial activity against Enterobacter aerogenes assessed as zone of inhibition; assay type: functional
Aspergillus niger = assay: Antifungal activity against Aspergillus niger assessed as zone of inhibition; assay type: functional
Penicillium italicum = assay: Antifungal activity against Penicillium italicum assessed as zone of inhibition; assay type: functional
Fusarium oxysporum = assay: Antifungal activity against Fusarium oxysporum assessed as zone of inhibition; assay type: functional
RAW264.7 = assay: Anti-inflammatory activity against mouse RAW264.7 cells assessed as inhibition of LPS-induced NO production at 50 ug/ml relative to control; assay type: functional; parameters: scale not given: the % may be the effect or the level left; details: dose 50 µg/ml
HepG2 = assay: Anticancer activity against human HepG2 cells by MTT assay; assay type: functional, cell-based
[22] = Antioxidant activity assessed as DPPH radical scavenging activity; assay type: functional
[23] = Antioxidant activity assessed as FRAP radical activity by FRAP assay; assay type: functional
HCT-116/VM46 [24] = assay: Anticancer activity against Multi drug resistant human HCT-116/VM46 cells assessed as inhibition of cell growth; assay type: functional, cell-based
MCF7 [25] = assay: Antiproliferative activity against human MCF7 cells assessed as inhibition of cell proliferation measured after 96 hrs by SRB assay; assay type: functional, cell-based; details: MCF7, 96 h

O=c1oc2ccc3ccccc3c2cc1-c1ccc2c(=O)oc3ccc(Cl)cc3c2n1
MIC (Staphylococcus aureus [1]): 62.5 µM (≈ 26.6 µg/mL)

O=c1oc2cc(O)ccc2c2c1[nH]c1ccc(O)cc12
IC50 [2]: 0.0003 µM

Cc1cccc2c1oc(=O)c1cc(NC(=O)c3ccccc3)c(=O)oc12
MIC (Escherichia coli [3]): 105 µM (≈ 36.5 µg/mL)

CCOC(=O)c1nnc2c3c(=O)oc4ccccc4c3nn2c1N
zone of inhibition at 20000 µg/mL (Candida albicans [4]): 10 mm

GENTAMICIN
MIC (Escherichia coli [5]): 5 µg/mL

COc1cc([C@@H]2c3cc4c(cc3[C@@H](O[C@@H]3O[C@@H]5CO[C@@H](C)O[C@H]5[C@H](O)[C@H]3O)[C@H]3COC(=O)[C@H]23)OCO4)cc(OC)c1O [ETOPOSIDE]
IC50 (H69AR): 45.9 µM
IC50 (HuCC-A1): 6.8 µM

COc1cccc2c1OC(=O)C1C(C)=Nc3[nH]n(-c4cc(Cl)ccc4Cl)c(=O)c3C21 (configuration not stated)
MIC [6]: 25 µM

CCc1c(C)c(=O)oc2c1c(=O)oc1ccccc12
MIC (Salmonella enterica): 50 µM (≈ 12.8 µg/mL)

COc1ccc(-c2c3c4cc(OC)c(O)cc4oc(=O)c3n3ccc4cc(O)c(OC)cc4c23)cc1O
IC50 [7]: 8 µM

CC(=O)/C=C1\c2c(c3ccccc3oc2=O)OC1(c1ccccc1)N(C)C (configuration not stated)
IC50 (HCT-15): 8 µM

O=c1oc2cc(O)ccc2c2oc3cc(O)ccc3c12
inhibition (MCF7 [8]): 50%
inhibition (HCT-116 [9]): 30%

COc1ccc(-c2c3c4cc(OC)c(OS(=O)(=O)O)cc4oc(=O)c3n3ccc4cc(OC)c(OC)cc4c23)cc1O
IC50 [10]: 8 µM

COc1cccc2cc(-c3ccc4c(=O)oc5c(C)cccc5c4n3)c(=O)oc12
MIC (Candida albicans [11]): 1000 µg/mL (≈ 2590 µM)

COc1cc(-c2c3n(c4c(=O)oc5cc(O)c(OC)cc5c24)CCc2c-3cc(OC)c(OC)c2O)ccc1O
IC50 (H69AR): 4.3 µM
IC50 (HuCC-A1): 3.4 µM

COc1cc2c(cc1O)oc(=O)c1c2c(-c2ccc(OC)c(OC)c2)c2c3cc(OC)c(O)cc3ccn21
IC50 at 72 h [12]: > 97 µM

O=c1oc2cc(O)c(O)cc2c2c(-c3ccc(O)c(O)c3)cn(CCc3ccc(O)c(O)c3)c12
IC50 (HCT-116 [13]): 12 µM
IC50 (L1210 [14]): 10 µM
IC50 (L1210 [15]): 10 µM
IC50 (HCT-116/VM46 [16]): 60 µM

O=[Se](O)O [SODIUM SELENITE]
IC50 (MES-SA): 29 µM

COc1cc(-c2c3c4cc(OC)c(O)cc4oc(=O)c3n3ccc4cc(O)c(OC)cc4c23)ccc1O [LAMELLARIN D]
IC50 [17]: 3.2 µM

O=c1oc2ccc(O)cc2c2c1[nH]c1ccc(O)cc12
IC50 [2]: 0.067 µM

Cc1oc2c(c1C)c(=O)oc1cc(OC(C)C)ccc12
EC50 (Botrytis cinerea [18]): 1.72 µg/mL (≈ 6.32 µM)
EC50 (Colletotrichum camelliae): 6.02 µg/mL (≈ 22.1 µM)
EC50 (Botrytis cinerea [19]): 1.72 µM

N#CC1=C(N)Oc2c(c(=O)oc3ccccc23)C1c1ccc(Br)cc1 (configuration not stated)
inhibition zone (IZ) (Staphylococcus aureus [20]): 28 mm
inhibition zone (IZ) (Bacillus subtilis): 11 mm
inhibition zone (IZ) (Bacillus cereus): 19 mm
inhibition zone (IZ) (Pseudomonas aeruginosa): 10 mm
inhibition zone (IZ) (Escherichia coli [21]): 20 mm
inhibition zone (IZ) (Klebsiella aerogenes): 10 mm
inhibition zone (IZ) (Aspergillus niger): 12 mm
inhibition zone (IZ) (Penicillium italicum): 11 mm
inhibition zone (IZ) (Fusarium oxysporum): 20 mm

CC(=O)c1c(O)c2c(cc(O)c3c(=O)oc4c5cccc(C)c5oc(=O)c4c32)oc1=O
MIC (Escherichia coli [5]): 100 µg/mL (≈ 238 µM)
MIC (Staphylococcus aureus [1]): 150 µM (≈ 63 µg/mL)
MIC (Escherichia coli [3]): 100 µM (≈ 42 µg/mL)

O=C(O)Cc1ccccc1Nc1c(Cl)cccc1Cl [DICLOFENAC]
Activity (RAW264.7): 62%

O=c1oc2ccccc2c2c1C(c1ccc(Br)cc1O)SCCN2 (stereo in doubt; 200)
IC50 (HepG2): 58 µM

O=c1oc2ccccc2c2c1C(c1ccc(Br)cc1O)SCCN2 (stereo in doubt; 203c)
IC50 [22]: 290 µM
IC50 (HepG2): 290 µM
IC50 [23]: 0.186 µM

Nc1cc(=O)[nH]c2c3c(=O)oc4ccccc4c3nn12
zone of inhibition at 20000 µg/mL (Candida albicans [4]): 10 mm

O=c1c(O)c(-c2ccc(O)c(O)c2)oc2cc(O)cc(O)c12 [QUERCETIN]
IC50 [23]: 53900 µM

COc1ccc(CCn2cc(-c3ccc(OC)c(OC)c3)c3c4cc(OC)c(OC)cc4oc(=O)c32)cc1OC
IC50 (L1210 [14]): 50 µM
IC50 (HCT-116/VM46 [24]): 40 µM
IC50 (HCT-116/VM46 [16]): 40 µM

N=c1c2c(=O)oc3ccccc3c2ccn1-c1ccccn1
MIC [6]: 50 µg/mL

O=c1oc2ccccc2c2[se]c(CN3CCOCC3)c(Nc3ccncc3)c12
IC50 (MCF7 [25]): 18 µM
